Reference: publication PMC7481357, “N-terminal Myristoylation Enhanced the Antimicrobial Activity of Antimicrobial Peptide PMAP-36PW” (Frontiers in Cellular and Infection Microbiology, 2020)
No end group written: not given here.

What was measured:
S. aureus ATCC 25923 [1] = assay type: cell-based, Staphylococcus aureus; conditions: for MICs of different classes of antibiotics: S. aureus ATCC 25923, * indicates resistant (CLSI, 2020); for MICs: ATCC 25923, 18 h
Description: (§1) The MICs of Myr-36PW in vitro were measured through microdilution in accordance with the Clinical and Laboratory Standards Institute (CLSI, [2020]). The bacterial cells were cultured for 12 h at 37°C in the appropriate medium and then diluted to 1 × 10^6 CFU/mL. Equal volumes (100 μL) of bacterial cell suspension and two-fold serially diluted different concentrations peptides (0.0039–256 μg/mL) were added to each well of the sterile 96-well plate. The samples were incubated for 18 h at 37°C. After incubation, the MICs of the peptides were determined by evaluating the growth based on the OD600 of the cultures.

S. typhimurium SL 1344 = assay type: cell-based, Salmonella typhimurium; conditions: for MICs of different classes of antibiotics: S. typhimurium SL 1344, * indicates resistant (CLSI, 2020); for MICs: SL 1344, 18 h
Description: as §1

P. aeruginosa GIM 1.551 [2] = assay type: cell-based, Pseudomonas aeruginosa; conditions: for MICs of different classes of antibiotics: P. aeruginosa GIM 1.551, * indicates resistant (CLSI, 2020); for MICs: GIM 1.551, 18 h
Description: as §1

[3] = system: L. monocytogenes CICC 21634; assay type: cell-based, Listeria monocytogenes; conditions: for MICs of different classes of antibiotics: L. monocytogenes CICC 21634, * indicates resistant (CLSI, 2020); for MICs: CICC 21634, 18 h
Description: as §1

S. aureus ATCC 25923 [4] = assay type: cell-based, Staphylococcus aureus; conditions: ATCC 25923, 1 h
Description: (§2) The effects of abiotic factors on the antibacterial activity of Myr-36PW were investigated by MIC assay (Xi et al., [2013]; Zhong et al., [2019]). S. aureus ATCC 25923 and P. aeruginosa GIM 1.551 overnight cultures were diluted to 1 × 10^6 CFU/mL, and the MICs of peptides in MHB with different concentration of physiological salts (150 mM NaCL, 2 mM CaCL2) were determined. And after the peptides incubated in 10% mice serum for 1 h at 37°C, MICs of peptides against S. aureus ATCC 25923 and P. aeruginosa GIM 1.551 were determined. The MICs in MHB in the absence of physiological salts and serum were used as the control group.
(§3) Salt and serum stability in vitro were indicated by MIC assay. The concentrations of NaCl and CaCl2 were physiological concentration. 10% mice serum was inactivated by heat treatment for 15 min at 60 ℃。The control group was measured in the absence of physiological salts or serum in MHB.

P. aeruginosa GIM 1.551 [5] = assay type: cell-based, Pseudomonas aeruginosa; conditions: GIM 1.551, 1 h
Description: as §2, §3

Substance | MICs of different classes of antibiotics (S. aureus ATCC 25923 [1]) | MICs of different classes of antibiotics (S. typhimurium SL 1344) [µg/mL] | MICs of different classes of antibiotics (P. aeruginosa GIM 1.551 [2]) | MICs of different classes of antibiotics [3] [µg/mL] | MICs, CaCl2 (S. aureus ATCC 25923 [4]) [µg/mL] | MICs, NaCl (S. aureus ATCC 25923 [4]) [µg/mL] | MICs, Serum (S. aureus ATCC 25923 [4]) [µg/mL] | MICs (S. aureus ATCC 25923 [1]) [µg/mL] | MICs (S. typhimurium SL 1344) [µg/mL] | MICs (P. aeruginosa GIM 1.551 [2]) [µg/mL] | MICs, CaCl2 (P. aeruginosa GIM 1.551 [5]) [µg/mL] | MICs, Control (P. aeruginosa GIM 1.551 [5]) [µg/mL] | MICs, NaCl (P. aeruginosa GIM 1.551 [5]) [µg/mL] | MICs, Serum (P. aeruginosa GIM 1.551 [5]) [µg/mL] | MICs [3] [µg/mL]
Colistin | 16* μg/mL | 2 | 4* μg/mL | 8 |  |  |  |  |  |  |  |  |  |  | 
GRFRRLRKKTRKRLKKIGKVLKWIPPIVGSIPLGCG [PMAP-36] |  |  |  |  | 0.0625 | 0.0625 | 0.0625 | 0.0156 | 32 | 1 | 2 | 2 | 2 | 2 | 4
GRFRRLRKKTRKRLKKIGKVLKWIWWIVGSIPLGCG [PMAP-36PW] |  |  |  |  |  |  |  | 0.0078 | 16 | 0.5 | 1 | 1 | 1 | 1 | 2
Polymyxin B | 16* μg/mL | 2 | 4* μg/mL | 8 |  |  |  |  |  |  |  |  |  |  | 
